The results in this text go back to ChEMBL document CHEMBL1159383, “Tasipeptins A and B: new cytotoxic depsipeptides from the marine cyanobacterium Symploca sp” (J Nat Prod, 2003).

The subject of the assay is KB. Description: Cytotoxicity against human KB cells. The class given is functional, cell-based.

SMILES strings stand for the structures.

As for `CCCC(=O)N[C@@H]1C(=O)N[C@@H](CC(C)C)C(=O)N[C@H]2CC[C@@H](O)N(C2=O)[C@@H](CC(C)C)C(=O)N(C)[C@@H](Cc2ccccc2)C(=O)N[C@@H](C(C)C)C(=O)O[C@@H]1C` [TASIPEPTIN B], the IC50 was 820 nM. `CCCC(=O)N[C@H](C(=O)N[C@@H]1C(=O)N[C@@H](CC(C)C)C(=O)N[C@H]2CC[C@@H](O)N(C2=O)[C@@H](CC(C)C)C(=O)N(C)[C@@H](Cc2ccccc2)C(=O)N[C@@H](C(C)C)C(=O)O[C@@H]1C)C(C)C` [TASIPEPTIN A] showed an IC50 of 930 nM.

The IC50 is the midpoint of a concentration-inhibition curve. The low end stands for greater potency in that assay, the high end for weaker potency in that assay.
